Values of other authors in patent US11465999B2, “Process for preparing Alectinib or a pharmaceutically acceptable salt thereof” (FRESENIUS KABI ONCOLOGY LIMITED, priority 2017, dated 2022).
Structures can show the parent of a compound that is named as a salt.

Assays:
[1] = in water across the whole pH range and in different solvents
[2] = high humidity: absorbs moisture to form a tetrahydrate; low humidity: dehydrates to anhydrate; drying

SMILES | solubility [1] | stability of crystalline form [2]
CCc1cc2c(cc1N1CCC(N3CCOCC3)CC1)C(C)(C)c1[nH]c3cc(C#N)ccc3c1C2=O [Alectinib hydrochloride] | insoluble | 
CCc1cc2c(cc1N1CCC(N3CCOCC3)CC1)C(C)(C)c1[nH]c3cc(C#N)ccc3c1C2=O.Cl [type III] |  | converts to type II on drying
CCc1cc2c(cc1N1CCC(N3CCOCC3)CC1)C(C)(C)c1[nH]c3cc(C#N)ccc3c1C2=O.Cl [type II] |  | not stable
